Reference: ChEMBL document CHEMBL4507282, “Data for DCP probe BI-1950” (2021)

What was measured:
Settings in all cases: Compound concentration 1000.0 nM
[1] = target: Tyrosine-protein kinase ABL1 (Homo sapiens) (UniProt P00519)
[2] = target: Atypical kinase COQ8A, mitochondrial (Homo sapiens) (UniProt Q8NI60)
[3] = target: Atypical kinase COQ8B, mitochondrial (Homo sapiens) (UniProt Q96D53)
[4] = target: 5'-AMP-activated protein kinase catalytic subunit alpha-2 (Homo sapiens) (UniProt P54646)
[5] = target: Aurora kinase C (Homo sapiens) (UniProt Q9UQB9)
[6] = target: Cyclin-dependent kinase-like 1 (Homo sapiens) (UniProt Q00532)
[7] = target: Cyclin-dependent kinase-like 2 (Homo sapiens) (UniProt Q92772)
[8] = target: Serine/threonine-protein kinase Chk2 (Homo sapiens) (UniProt O96017)
[9] = target: Macrophage colony-stimulating factor 1 receptor (Homo sapiens) (UniProt P07333)
[10] = target: Mitogen-activated protein kinase kinase kinase 12 (Homo sapiens) (UniProt Q12852)
[11] = target: Epidermal growth factor receptor (Homo sapiens) (UniProt P00533)
[12] = target: Mitogen-activated protein kinase 3 (Homo sapiens) (UniProt P27361)
[13] = target: Fibroblast growth factor receptor 1 (Homo sapiens) (UniProt P11362)
[14] = target: Tyrosine-protein kinase Fgr (Homo sapiens) (UniProt P09769)
[15] = system: Receptor-type tyrosine-protein kinase FLT3 (Homo sapiens), P36888 [UNDEFINED MUTATION]
[16] = target: Glycogen synthase kinase-3 alpha (Homo sapiens) (UniProt P49840)
[17] = target: Tyrosine-protein kinase ITK/TSK (Homo sapiens) (UniProt Q08881)
[18] = target: Mast/stem cell growth factor receptor Kit (Homo sapiens) (UniProt P10721)
[19] = system: Mast/stem cell growth factor receptor Kit (Homo sapiens), P10721 [A829P]
[20] = system: Mast/stem cell growth factor receptor Kit (Homo sapiens), P10721 [L576P]
[21] = target: Mitogen-activated protein kinase kinase kinase kinase 5 (Homo sapiens) (UniProt Q9Y4K4)
[22] = target: Serine/threonine-protein kinase MARK2 (Homo sapiens) (UniProt Q7KZI7)
[23] = target: Misshapen-like kinase 1 (Homo sapiens) (UniProt Q8N4C8)
[24] = target: Mitogen-activated protein kinase kinase kinase 9 (Homo sapiens) (UniProt P80192)
[25] = target: Mitogen-activated protein kinase kinase kinase 11 (Homo sapiens) (UniProt Q16584)
[26] = target: Macrophage-stimulating protein receptor (Homo sapiens) (UniProt Q04912)
[27] = target: Myosin-IIIa (Homo sapiens) (UniProt Q8NEV4)
[28] = target: Serine/threonine-protein kinase 38-like (Homo sapiens) (UniProt Q9Y2H1)
[29] = target: Platelet-derived growth factor receptor alpha (Homo sapiens) (UniProt P16234)
[30] = target: Platelet-derived growth factor receptor beta (Homo sapiens) (UniProt P09619)
[31] = target: Cyclin-dependent kinase 15 (Homo sapiens) (UniProt Q96Q40)
[32] = system: Phosphatidylinositol 4,5-bisphosphate 3-kinase catalytic subunit alpha isoform (Homo sapiens), P42336 [C420R]
[33] = target: Phosphatidylinositol 4,5-bisphosphate 3-kinase catalytic subunit beta isoform (Homo sapiens) (UniProt P42338)
[34] = target: Phosphatidylinositol 5-phosphate 4-kinase type-2 gamma (Homo sapiens) (UniProt Q8TBX8)
[35] = target: Serine/threonine-protein kinase SIK3 (Homo sapiens) (UniProt Q9Y2K2)
[36] = target: Receptor-interacting serine/threonine-protein kinase 1 (Homo sapiens) (UniProt Q13546)
[37] = target: Receptor-interacting serine/threonine-protein kinase 2 (Homo sapiens) (UniProt O43353)
[38] = target: SNF-related serine/threonine-protein kinase (Homo sapiens) (UniProt Q9NRH2)
[39] = target: Proto-oncogene tyrosine-protein kinase Src (Homo sapiens) (UniProt P12931)
[40] = target: Tyrosine-protein kinase Srms (Homo sapiens) (UniProt Q9H3Y6)
[41] = target: TGF-beta receptor type-2 (Homo sapiens) (UniProt P37173)
[42] = target: Serine/threonine-protein kinase TNNI3K (Homo sapiens) (UniProt Q59H18)
[43] = target: Serine/threonine-protein kinase VRK2 (Homo sapiens) (UniProt Q86Y07)
[44] = target: Tyrosine-protein kinase Yes (Homo sapiens) (UniProt P07947)
[45] = target: Mitogen-activated protein kinase kinase kinase 19 (Homo sapiens) (UniProt Q56UN5)

Chain of Aurora kinase C (Homo sapiens) (Q9UQB9 whole entry): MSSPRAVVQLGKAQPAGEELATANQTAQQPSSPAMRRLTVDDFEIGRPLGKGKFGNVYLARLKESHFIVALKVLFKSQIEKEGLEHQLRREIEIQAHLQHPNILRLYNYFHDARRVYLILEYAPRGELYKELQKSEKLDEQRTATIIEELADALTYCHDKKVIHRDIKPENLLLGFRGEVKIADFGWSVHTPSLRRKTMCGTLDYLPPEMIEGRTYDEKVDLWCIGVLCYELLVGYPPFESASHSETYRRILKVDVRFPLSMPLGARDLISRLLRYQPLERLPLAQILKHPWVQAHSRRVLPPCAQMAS
Chain of Tyrosine-protein kinase ITK/TSK (Homo sapiens) (Q08881 whole entry): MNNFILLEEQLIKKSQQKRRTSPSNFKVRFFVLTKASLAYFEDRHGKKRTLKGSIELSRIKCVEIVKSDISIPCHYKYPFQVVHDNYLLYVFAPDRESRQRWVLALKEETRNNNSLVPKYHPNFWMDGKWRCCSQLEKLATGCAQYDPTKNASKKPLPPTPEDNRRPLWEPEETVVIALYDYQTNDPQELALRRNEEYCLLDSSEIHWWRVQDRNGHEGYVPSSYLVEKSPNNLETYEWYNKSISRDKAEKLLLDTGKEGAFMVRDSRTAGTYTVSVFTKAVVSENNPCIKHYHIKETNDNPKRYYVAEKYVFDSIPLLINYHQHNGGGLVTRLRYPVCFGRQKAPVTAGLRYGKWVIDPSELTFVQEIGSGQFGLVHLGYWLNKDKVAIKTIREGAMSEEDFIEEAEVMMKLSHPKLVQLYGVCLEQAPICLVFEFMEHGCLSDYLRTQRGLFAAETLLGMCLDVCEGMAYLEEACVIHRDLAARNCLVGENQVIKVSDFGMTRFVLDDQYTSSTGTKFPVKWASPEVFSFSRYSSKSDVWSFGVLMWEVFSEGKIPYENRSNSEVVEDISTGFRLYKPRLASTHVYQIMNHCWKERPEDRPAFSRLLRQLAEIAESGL
Chain of Phosphatidylinositol 5-phosphate 4-kinase type-2 gamma (Homo sapiens) (Q8TBX8 whole entry): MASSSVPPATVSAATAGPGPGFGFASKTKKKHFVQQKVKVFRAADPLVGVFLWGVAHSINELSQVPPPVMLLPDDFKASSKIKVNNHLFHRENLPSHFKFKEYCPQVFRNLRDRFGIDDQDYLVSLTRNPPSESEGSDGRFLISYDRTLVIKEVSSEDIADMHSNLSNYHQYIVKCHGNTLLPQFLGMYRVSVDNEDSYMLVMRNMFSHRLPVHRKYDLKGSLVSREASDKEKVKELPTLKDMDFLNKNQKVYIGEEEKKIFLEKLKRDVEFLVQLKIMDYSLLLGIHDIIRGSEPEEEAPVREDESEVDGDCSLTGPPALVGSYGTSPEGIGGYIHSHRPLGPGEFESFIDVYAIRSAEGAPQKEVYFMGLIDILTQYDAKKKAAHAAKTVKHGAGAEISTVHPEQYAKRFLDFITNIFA
Chain of Myosin-IIIa (Homo sapiens) (Q8NEV4 whole entry): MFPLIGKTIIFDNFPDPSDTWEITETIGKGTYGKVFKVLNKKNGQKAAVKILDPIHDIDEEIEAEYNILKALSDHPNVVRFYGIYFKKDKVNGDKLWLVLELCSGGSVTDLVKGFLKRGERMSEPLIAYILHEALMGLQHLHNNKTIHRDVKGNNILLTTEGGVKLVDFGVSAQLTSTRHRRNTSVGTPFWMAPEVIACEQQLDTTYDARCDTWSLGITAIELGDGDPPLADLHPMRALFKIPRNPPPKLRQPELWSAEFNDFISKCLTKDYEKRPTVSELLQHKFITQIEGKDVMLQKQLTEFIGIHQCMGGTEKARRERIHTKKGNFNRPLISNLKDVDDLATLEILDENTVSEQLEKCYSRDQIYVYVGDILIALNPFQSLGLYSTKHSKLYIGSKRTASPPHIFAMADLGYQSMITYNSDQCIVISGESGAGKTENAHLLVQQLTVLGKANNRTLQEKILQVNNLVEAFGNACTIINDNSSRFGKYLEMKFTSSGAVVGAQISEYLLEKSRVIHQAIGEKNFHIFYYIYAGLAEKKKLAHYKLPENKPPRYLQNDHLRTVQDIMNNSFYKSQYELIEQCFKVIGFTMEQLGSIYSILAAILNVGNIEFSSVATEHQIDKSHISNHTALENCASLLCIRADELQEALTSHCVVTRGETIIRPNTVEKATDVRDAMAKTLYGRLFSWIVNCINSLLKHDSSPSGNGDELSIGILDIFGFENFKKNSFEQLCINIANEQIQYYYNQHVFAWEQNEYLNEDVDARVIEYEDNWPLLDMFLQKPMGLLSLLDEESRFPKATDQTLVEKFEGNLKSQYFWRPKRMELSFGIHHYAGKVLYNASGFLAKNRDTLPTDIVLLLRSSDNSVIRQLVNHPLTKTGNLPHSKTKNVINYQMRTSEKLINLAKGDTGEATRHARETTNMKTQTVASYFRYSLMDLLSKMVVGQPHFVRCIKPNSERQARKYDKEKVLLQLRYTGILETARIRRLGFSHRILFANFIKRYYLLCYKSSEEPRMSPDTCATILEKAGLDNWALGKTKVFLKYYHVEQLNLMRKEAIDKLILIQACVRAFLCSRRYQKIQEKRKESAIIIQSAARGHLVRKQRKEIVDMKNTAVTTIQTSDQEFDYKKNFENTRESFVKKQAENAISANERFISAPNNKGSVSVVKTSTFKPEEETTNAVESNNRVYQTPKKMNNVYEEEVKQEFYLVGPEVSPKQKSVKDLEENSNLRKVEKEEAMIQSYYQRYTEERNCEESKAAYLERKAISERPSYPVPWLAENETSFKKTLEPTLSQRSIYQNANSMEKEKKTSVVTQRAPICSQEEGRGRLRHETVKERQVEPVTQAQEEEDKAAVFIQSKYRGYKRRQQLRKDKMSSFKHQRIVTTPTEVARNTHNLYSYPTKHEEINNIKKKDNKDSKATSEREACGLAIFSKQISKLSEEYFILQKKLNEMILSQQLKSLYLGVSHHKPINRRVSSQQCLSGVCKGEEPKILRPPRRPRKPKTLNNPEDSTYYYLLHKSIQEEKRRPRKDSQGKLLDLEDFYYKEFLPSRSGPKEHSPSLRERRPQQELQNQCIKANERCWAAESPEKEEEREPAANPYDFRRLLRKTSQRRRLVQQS
Chain of Cyclin-dependent kinase-like 1 (Homo sapiens) (Q00532 whole entry): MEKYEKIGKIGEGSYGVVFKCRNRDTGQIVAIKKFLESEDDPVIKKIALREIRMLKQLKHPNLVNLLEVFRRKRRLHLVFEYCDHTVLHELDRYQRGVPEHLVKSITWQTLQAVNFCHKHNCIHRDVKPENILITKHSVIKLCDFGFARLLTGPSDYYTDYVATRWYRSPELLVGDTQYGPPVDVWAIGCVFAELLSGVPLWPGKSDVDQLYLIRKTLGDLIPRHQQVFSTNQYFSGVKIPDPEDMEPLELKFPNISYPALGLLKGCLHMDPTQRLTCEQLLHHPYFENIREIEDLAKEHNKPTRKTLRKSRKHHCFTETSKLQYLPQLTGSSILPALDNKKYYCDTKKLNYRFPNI
Chain of Misshapen-like kinase 1 (Homo sapiens) (Q8N4C8 whole entry, looked up): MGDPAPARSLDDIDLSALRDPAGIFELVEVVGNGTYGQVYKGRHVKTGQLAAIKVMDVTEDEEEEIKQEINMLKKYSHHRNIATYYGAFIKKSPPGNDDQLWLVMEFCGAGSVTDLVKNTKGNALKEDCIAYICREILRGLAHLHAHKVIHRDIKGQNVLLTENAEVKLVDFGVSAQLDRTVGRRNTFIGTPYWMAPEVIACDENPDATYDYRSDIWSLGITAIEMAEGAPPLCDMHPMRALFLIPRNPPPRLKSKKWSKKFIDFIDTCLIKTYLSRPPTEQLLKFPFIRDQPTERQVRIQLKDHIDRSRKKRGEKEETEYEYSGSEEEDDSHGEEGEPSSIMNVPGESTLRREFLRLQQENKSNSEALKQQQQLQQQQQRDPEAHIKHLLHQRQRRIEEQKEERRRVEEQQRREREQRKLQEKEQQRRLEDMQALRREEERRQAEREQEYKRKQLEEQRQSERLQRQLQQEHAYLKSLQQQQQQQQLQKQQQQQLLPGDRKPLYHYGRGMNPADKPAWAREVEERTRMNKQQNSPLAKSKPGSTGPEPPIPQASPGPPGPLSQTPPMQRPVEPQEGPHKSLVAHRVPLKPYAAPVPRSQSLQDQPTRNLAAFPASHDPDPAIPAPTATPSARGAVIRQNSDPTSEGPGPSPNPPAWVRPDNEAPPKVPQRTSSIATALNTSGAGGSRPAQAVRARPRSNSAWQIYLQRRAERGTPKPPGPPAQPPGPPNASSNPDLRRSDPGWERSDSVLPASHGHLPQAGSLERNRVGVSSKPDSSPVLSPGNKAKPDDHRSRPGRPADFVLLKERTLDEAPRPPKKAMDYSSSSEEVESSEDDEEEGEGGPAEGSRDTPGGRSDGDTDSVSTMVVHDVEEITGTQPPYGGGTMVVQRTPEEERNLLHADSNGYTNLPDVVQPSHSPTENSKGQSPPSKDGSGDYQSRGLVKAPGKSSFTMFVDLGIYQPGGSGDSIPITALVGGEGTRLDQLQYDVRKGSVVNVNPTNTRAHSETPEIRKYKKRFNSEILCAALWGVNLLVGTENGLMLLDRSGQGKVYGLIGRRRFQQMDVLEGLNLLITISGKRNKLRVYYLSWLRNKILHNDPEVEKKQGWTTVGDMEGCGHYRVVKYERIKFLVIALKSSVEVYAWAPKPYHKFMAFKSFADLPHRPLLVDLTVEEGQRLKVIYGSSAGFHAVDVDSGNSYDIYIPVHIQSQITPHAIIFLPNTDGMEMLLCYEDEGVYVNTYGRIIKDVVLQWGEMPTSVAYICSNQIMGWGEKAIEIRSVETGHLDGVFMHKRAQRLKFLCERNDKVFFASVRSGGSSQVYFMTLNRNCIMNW
Chain of Mitogen-activated protein kinase 3 (Homo sapiens) (P27361 whole entry): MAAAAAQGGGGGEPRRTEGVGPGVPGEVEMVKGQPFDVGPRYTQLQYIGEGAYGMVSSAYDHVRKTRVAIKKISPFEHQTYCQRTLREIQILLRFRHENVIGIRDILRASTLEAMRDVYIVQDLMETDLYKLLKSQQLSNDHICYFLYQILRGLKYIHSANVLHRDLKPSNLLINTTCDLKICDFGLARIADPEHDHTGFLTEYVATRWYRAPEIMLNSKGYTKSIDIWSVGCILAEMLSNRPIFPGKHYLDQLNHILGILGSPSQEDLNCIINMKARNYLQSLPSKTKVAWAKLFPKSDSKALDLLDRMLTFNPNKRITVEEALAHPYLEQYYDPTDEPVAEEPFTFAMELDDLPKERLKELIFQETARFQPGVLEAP

For C[C@@]1(Cc2ccc(C#N)cc2)C(=O)N(c2cc(Cl)cc(Cl)c2)c2ncc(C(=O)NC3(c4nc(C5CCC5)no4)CC3)n21 [BI 9446], the residual activity [1] was 100%, the residual activity [2] was 90% and the residual activity [3] was 100%. It also gave a residual activity [4] of 100%, a residual activity [5] of 100% and a residual activity [6] of 100%. For the same molecule, the residual activity [7] was 100%, the residual activity [8] was 100% and the residual activity [9] was 100%. It also gave a residual activity [10] of 100%, a residual activity [11] of 100% and a residual activity [12] of 86%. It also gave a residual activity [13] of 100%, a residual activity [14] of 100% and a residual activity [15] of 100%. The residual activity [16] was 100%, the residual activity [17] was 92% and the residual activity [18] was 98%. It also gave a residual activity [19] of 100%, a residual activity [20] of 100% and a residual activity [21] of 93%. For the same molecule, the residual activity [22] was 85%, the residual activity [23] was 100% and the residual activity [24] was 100%. It also gave a residual activity [25] of 100%, a residual activity [26] of 100% and a residual activity [27] of 100%. For the same molecule, the residual activity [28] was 48%, the residual activity [29] was 100% and the residual activity [30] was 100%. It also gave a residual activity [31] of 97%, a residual activity [32] of 89% and a residual activity [33] of 97%. For the same molecule, the residual activity [34] was 100%, the residual activity [35] was 98% and the residual activity [36] was 100%. For the same molecule, the residual activity [37] was 91%, the residual activity [38] was 100% and the residual activity [39] was 98%. For the same molecule, the residual activity [40] was 100%, the residual activity [41] was 99% and the residual activity [42] was 72%. For the same molecule, the residual activity [43] was 100%, the residual activity [44] was 100% and the residual activity [45] was 100%.

C[C@H](NC(=O)c1cnc2n1[C@](C)(Cc1ccc(C#N)cc1)C(=O)N2c1cc(Cl)c(F)c(Cl)c1)C(=O)NC1(c2ccccn2)CC1 [BI 1950] was tested, and the residual activity [1] was 99%, the residual activity [2] was 100% and the residual activity [3] was 100%. For the same molecule, the residual activity [4] was 100%, the residual activity [5] was 100% and the residual activity [6] was 73%. It also gave a residual activity [7] of 100%, a residual activity [8] of 100% and a residual activity [9] of 100%. The residual activity [10] was 100%, the residual activity [11] was 100% and the residual activity [12] was 91%. The residual activity [13] was 100%, the residual activity [14] was 100% and the residual activity [15] was 100%. For the same molecule, the residual activity [16] was 100%, the residual activity [17] was 83% and the residual activity [18] was 91%. The residual activity [19] was 100%, the residual activity [20] was 83% and the residual activity [21] was 94%. For the same molecule, the residual activity [22] was 100%, the residual activity [23] was 100% and the residual activity [24] was 100%. It also gave a residual activity [25] of 100%, a residual activity [26] of 100% and a residual activity [27] of 100%. For the same molecule, the residual activity [28] was 49%, the residual activity [29] was 100% and the residual activity [30] was 91%. It also gave a residual activity [31] of 100%, a residual activity [32] of 93% and a residual activity [33] of 99%. For the same molecule, the residual activity [34] was 100%, the residual activity [35] was 76% and the residual activity [36] was 100%. It also gave a residual activity [37] of 68%, a residual activity [38] of 100% and a residual activity [39] of 100%. It also gave a residual activity [40] of 100%, a residual activity [41] of 100% and a residual activity [42] of 65%. It also gave a residual activity [43] of 100%, a residual activity [44] of 100% and a residual activity [45] of 100%.
